According to the supplement of paper PMC4862054:

Tests used:
Experiment in all cases: normalised viability (% of control), CellTiter-Blue; higher = more viable cells (about 100 = DMSO control)
Settings in all cases: incubation time: 72 h
HCC1143 [1] = test system: HCC1143
How it was run: (§1)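 384-well plates were pre-loaded with compound in 5 µl medium before 20 µl of breast cancer cell suspension was seeded. Following 72 h incubation, 2.5 µl CellTiter-Blue reagent was added for 2 h at 37 °C. Fluorescence was read at 560/590 nm and plates were normalised to vehicle (100) and a positive kill control (0), checked by Z'-factor. Normalised viability is reported at a single listed concentration of the series.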

MDA-MB-453 [2] = test system: MDA-MB-453
How it was run: as §1

SK-BR-3 [3] = test system: SK-BR-3
How it was run: as §1

BT-474 [4] = test system: BT-474
How it was run: as §1

DU-4475 [5] = test system: DU-4475
How it was run: as §1

MDA-MB-468 [6] = test system: MDA-MB-468
How it was run: as §1

CAL-148 [7] = test system: CAL-148
How it was run: as §1

CAL-51 [8] = test system: CAL-51
How it was run: as §1

MFM-223 [9] = test system: MFM-223
How it was run: as §1

MDA-MB-231 [10] = test system: MDA-MB-231
How it was run: as §1

HCC1599 [11] = test system: HCC1599
How it was run: as §1

HCC1937 [12] = test system: HCC1937
How it was run: as §1

HCC1143 [13] = test system: HCC1143; remark: listed apart in the source
Method: (§2)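 DSRT, CellTiter-Blue viability, 72 h incubation. Signal is normalised to DMSO and benzethonium chloride controls. Value is the normalised response at dose 3.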

MDA-MB-436 = test system: MDA-MB-436
Method: as §2

Hs578T = test system: Hs578T
Method: as §2

MDA-MB-453 [14] = test system: MDA-MB-453; remark: listed apart in the source
Method: as §2

SK-BR-3 [15] = test system: SK-BR-3; remark: listed apart in the source
Method: as §2

HDQ-P1 = test system: HDQ-P1
Method: as §2

BT-474 [16] = test system: BT-474; remark: listed apart in the source
Method: as §2

DU-4475 [17] = test system: DU-4475; remark: listed apart in the source
Method: as §2

CAL-85-1 = test system: CAL-85-1
Method: as §2

MDA-MB-468 [18] = test system: MDA-MB-468; remark: listed apart in the source
Method: as §2

CAL-148 [19] = test system: CAL-148; remark: listed apart in the source
Method: as §2

BT-549 = test system: BT-549
Method: as §2

CAL-51 [20] = test system: CAL-51; remark: listed apart in the source
Method: as §2

CAL-120 = test system: CAL-120
Method: as §2

MFM-223 [21] = test system: MFM-223; remark: listed apart in the source
Method: as §2

MDA-MB-231 [22] = test system: MDA-MB-231; remark: listed apart in the source
Method: as §2

HCC1599 [23] = test system: HCC1599; remark: listed apart in the source
Method: as §2

HCC1937 [24] = test system: HCC1937; remark: listed apart in the source
Method: as §2

C=CCN(/C=C1/C(=O)O[C@H](COC)[C@@]2(C)C1=C(O)C(=O)C1=C2[C@H](OC(C)=O)C[C@]2(C)C(=O)CC[C@@H]12)CC=C [PX-866]
Settings | normalised viability [%]
BT-474 [4], 10 nM | 118
BT-474 [4], 1000 nM | 87.3
BT-474 [4], 10000 nM | 41.9
BT-474 [16], 100 nM | 118
BT-549, 100 nM | 98.4
CAL-51 [8], 3 nM | 118
CAL-51 [8], 30 nM | 107
CAL-51 [8], 100 nM | 103
CAL-51 [20], 10 nM | 110
CAL-85-1, 10 nM | 104
CAL-120, 100 nM | 108
CAL-148 [7], 3 nM | 97.2
CAL-148 [7], 30 nM | 105
CAL-148 [7], 100 nM | 107
CAL-148 [19], 10 nM | 100
DU-4475 [5], 3 nM | 109
DU-4475 [5], 30 nM | 96.1
DU-4475 [5], 100 nM | 92.7
DU-4475 [17], 10 nM | 97
HCC1143 [1], 10 nM | 91.6
HCC1143 [1], 1000 nM | 80.8
HCC1143 [1], 10000 nM | 60.8
HCC1143 [13], 100 nM | 99.2
HCC1599 [11], 10 nM | 98.3
HCC1599 [11], 1000 nM | 105
HCC1599 [11], 10000 nM | 78.3
HCC1599 [23], 100 nM | 112
HCC1937 [12], 10 nM | 106
HCC1937 [12], 1000 nM | 73.6
HCC1937 [12], 10000 nM | 59.7
HCC1937 [24], 100 nM | 99
HDQ-P1, 10 nM | 109
Hs578T, 100 nM | 81
MDA-MB-231 [10], 10 nM | 92.9
MDA-MB-231 [10], 1000 nM | 72.6
MDA-MB-231 [10], 10000 nM | 50
MDA-MB-231 [22], 100 nM | 97.8
MDA-MB-436, 100 nM | 102
MDA-MB-453 [2], 3 nM | 128
MDA-MB-453 [2], 30 nM | 95.7
MDA-MB-453 [2], 100 nM | 98.9
MDA-MB-453 [14], 10 nM | 99.3
MDA-MB-468 [6], 10 nM | 112
MDA-MB-468 [6], 1000 nM | 62.7
MDA-MB-468 [6], 10000 nM | 21.9
MDA-MB-468 [18], 100 nM | 90.2
MFM-223 [9], 10 nM | 86.5
MFM-223 [9], 1000 nM | 96.9
MFM-223 [9], 10000 nM | 95.9
MFM-223 [21], 100 nM | 95.2
SK-BR-3 [3], 10 nM | 109
SK-BR-3 [3], 1000 nM | 61.7
SK-BR-3 [3], 10000 nM | 28.5
SK-BR-3 [15], 100 nM | 78.1

CCNC(=O)CCC/C=C\C[C@@H]1[C@@H](/C=C/[C@@H](O)CCc2ccccc2)[C@H](O)C[C@@H]1O [Bimatoprost]
Settings | normalised viability [%]
BT-474 [4], 5.5 nM | 112
BT-474 [4], 550 nM | 106
BT-474 [4], 5500 nM | 127
BT-474 [16], 55 nM | 126
BT-549, 55 nM | 98.7
CAL-51 [8], 1.65 nM | 124
CAL-51 [8], 16.5 nM | 114
CAL-51 [8], 55 nM | 112
CAL-51 [20], 5.5 nM | 113
CAL-85-1, 5.5 nM | 104
CAL-120, 55 nM | 95.4
CAL-148 [7], 1.65 nM | 92.6
CAL-148 [7], 16.5 nM | 90.9
CAL-148 [7], 55 nM | 95.2
CAL-148 [19], 5.5 nM | 90.1
DU-4475 [5], 1.65 nM | 112
DU-4475 [5], 16.5 nM | 99.4
DU-4475 [5], 55 nM | 95.5
DU-4475 [17], 5.5 nM | 120
HCC1143 [1], 5.5 nM | 102
HCC1143 [1], 550 nM | 104
HCC1143 [1], 5500 nM | 94.2
HCC1143 [13], 55 nM | 100
HCC1599 [11], 5.5 nM | 111
HCC1599 [11], 550 nM | 111
HCC1599 [11], 5500 nM | 112
HCC1599 [23], 55 nM | 123
HCC1937 [12], 5.5 nM | 106
HCC1937 [12], 550 nM | 99.9
HCC1937 [12], 5500 nM | 89.6
HCC1937 [24], 55 nM | 102
HDQ-P1, 5.5 nM | 99.7
Hs578T, 55 nM | 80.7
MDA-MB-231 [10], 5.5 nM | 100
MDA-MB-231 [10], 550 nM | 97.2
MDA-MB-231 [10], 5500 nM | 97.6
MDA-MB-231 [22], 55 nM | 96.8
MDA-MB-436, 55 nM | 115
MDA-MB-453 [2], 1.65 nM | 116
MDA-MB-453 [2], 16.5 nM | 91.7
MDA-MB-453 [2], 55 nM | 92.5
MDA-MB-453 [14], 5.5 nM | 105
MDA-MB-468 [6], 5.5 nM | 97.1
MDA-MB-468 [6], 550 nM | 123
MDA-MB-468 [6], 5500 nM | 111
MDA-MB-468 [18], 55 nM | 106
MFM-223 [9], 5.5 nM | 112
MFM-223 [9], 550 nM | 104
MFM-223 [9], 5500 nM | 96.7
MFM-223 [21], 55 nM | 108
SK-BR-3 [3], 5.5 nM | 98.7
SK-BR-3 [3], 550 nM | 110
SK-BR-3 [3], 5500 nM | 97
SK-BR-3 [15], 55 nM | 82.1
